Reference: paper PMC9658223, “New, Eco-Friendly Method for Synthesis of 3-Chlorophenyl and 1,1′-Biphenyl Piperazinylhexyl Trazodone Analogues with Dual 5-HT1A/5-HT7 Affinity and Its Antidepressant-like Activity” (Molecules, 2022)
Where a name gives a salt, the structure may show the parent alone.

Legend:
[1] = target: T1, 5-HT7 receptor (Homo sapiens, UniProt P34969); experiment: LANCE Ultra cAMP assay, inhibition of 5-CT-induced cAMP in HEK-293 cells overexpressing 5-HT7bR; format: cell-based
T1 construct: gene HTR7; 5-HT7bR
T1 sequence (P34969 1-432): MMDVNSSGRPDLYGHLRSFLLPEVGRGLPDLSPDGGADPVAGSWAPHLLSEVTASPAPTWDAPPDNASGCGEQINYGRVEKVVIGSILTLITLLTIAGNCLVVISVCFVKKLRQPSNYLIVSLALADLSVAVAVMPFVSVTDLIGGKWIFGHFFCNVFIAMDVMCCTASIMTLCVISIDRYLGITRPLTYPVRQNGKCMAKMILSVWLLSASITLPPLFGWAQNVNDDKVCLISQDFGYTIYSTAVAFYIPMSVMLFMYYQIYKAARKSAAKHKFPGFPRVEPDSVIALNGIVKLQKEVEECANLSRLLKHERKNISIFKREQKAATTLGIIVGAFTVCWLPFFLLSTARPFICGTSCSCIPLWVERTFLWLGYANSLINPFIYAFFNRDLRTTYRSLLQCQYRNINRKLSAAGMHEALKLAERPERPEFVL
Text: LANCE Ultra cAMP assay, inhibition of 5-CT-induced cAMP in HEK-293 cells overexpressing 5-HT7bR on 5-HT7 receptor | Both behaved as 5-HT7R antagonists | Both behaved as 5-HT7R antagonists, while 7b·HCl additionally acted as a 5-HT1AR antagonist in a cAMP assay.

[2] = target: CYP3A4 (Homo sapiens, UniProt P08684); experiment: CYP3A4 P450-Glo luminescence assay (Promega), single concentration […]; format: biochemical
Sequence of CYP3A4 (P08684 2-503): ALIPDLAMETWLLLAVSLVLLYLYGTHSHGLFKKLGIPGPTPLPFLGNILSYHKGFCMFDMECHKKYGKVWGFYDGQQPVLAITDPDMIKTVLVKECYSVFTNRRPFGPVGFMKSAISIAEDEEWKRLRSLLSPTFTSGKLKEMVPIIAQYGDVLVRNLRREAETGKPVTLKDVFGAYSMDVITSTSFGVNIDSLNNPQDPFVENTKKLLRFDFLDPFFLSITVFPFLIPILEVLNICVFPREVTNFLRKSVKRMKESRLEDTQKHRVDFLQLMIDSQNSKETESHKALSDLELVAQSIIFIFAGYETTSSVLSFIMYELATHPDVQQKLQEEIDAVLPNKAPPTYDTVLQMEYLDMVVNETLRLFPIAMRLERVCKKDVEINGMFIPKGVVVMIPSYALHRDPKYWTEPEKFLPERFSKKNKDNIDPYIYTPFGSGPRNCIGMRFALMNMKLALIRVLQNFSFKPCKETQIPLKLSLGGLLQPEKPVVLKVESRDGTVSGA

[3] = target: T2, 5-HT1A receptor (Homo sapiens, UniProt P08908); experiment: LANCE Ultra cAMP functional antagonist assay in HEK293 cells; format: cell-based
T2 construct: gene HTR1A
T2 sequence (P08908 1-422): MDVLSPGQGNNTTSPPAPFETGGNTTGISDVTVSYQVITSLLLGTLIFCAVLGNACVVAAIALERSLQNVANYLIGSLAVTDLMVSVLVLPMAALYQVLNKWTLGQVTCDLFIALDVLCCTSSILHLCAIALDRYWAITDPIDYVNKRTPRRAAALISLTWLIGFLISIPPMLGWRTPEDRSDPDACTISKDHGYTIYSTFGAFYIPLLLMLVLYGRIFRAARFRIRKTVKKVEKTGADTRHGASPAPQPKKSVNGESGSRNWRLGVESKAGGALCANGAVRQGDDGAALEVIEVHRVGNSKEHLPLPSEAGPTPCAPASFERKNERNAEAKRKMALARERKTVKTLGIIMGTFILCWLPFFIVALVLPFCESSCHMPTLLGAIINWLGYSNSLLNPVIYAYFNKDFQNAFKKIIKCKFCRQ
Text: LANCE Ultra cAMP functional antagonist assay in HEK293 cells on 5-HT1A receptor | 7b·HCl additionally acted as a 5-HT1AR antagonist in a cAMP assay

| Kb [1] [nM] | inhibition at 10 µM [2] [%] | Kb [3] [nM] | Compound |
| --- | --- | --- | --- |
| 87 |  |  | O=c1n(CCCCCCN2CCN(c3cccc(Cl)c3)CC2)nc2ccccn12 [7a·HCl, 2-(6-(4-(3-chlorophenyl)piperazin-1-yl)hexyl)-[1,2,4]triazolo[4,3-a]pyridin-3(2H)-one hydrochloride] |
| 18 | 35 | 12 | O=c1n(CCCCCCN2CCN(c3ccccc3-c3ccccc3)CC2)nc2ccccn12 [7b·HCl, 2-(6-(4-([1,1′-biphenyl]-2-yl)piperazin-1-yl)hexyl)-[1,2,4]triazolo[4,3-a]pyridin-3(2H)-one hydrochloride] |
